This is an account of results in patent US20100197584A1, “USE OF CURCUMIN TO BLOCK BRAIN TUMOR FORMATION IN MICE” (Research Foundations of the City University of- New York, priority 2007, published 2010).

One test deals with rat glioma cells. As to conditions: rat glioma cells in vitro (Karmakar 2006; Dhandapani 2007); cited from earlier work.
The test system of test [1] is N18 (mouse neuroblastoma) cells. Briefly: Caspase-3/7 assay in N18 cells. In kind it is cell-based. As to conditions: 20 μM and 50 μM, 48 h or 96 h (FIG. 2). Here is the method: Cells. B16F10 (mouse melanoma), GL261 (mouse glioma), HOG (human oligodendroglioma), A549 (human lung cancer), and […] (mouse neuroblastoma) cells were cultured separately in DMEM containing 10% (v/v) fetal bovine serum and 1% (v/v) penicillin-streptomycin (PS) and allowed to grow to 40% confluence in a 96-well plate. Curcumin Treatment. Two hours before drug treatment, the medium in each well was replaced with 200 μl Neurobasal medium supplemented with 2% (v/v) B27 and 1% (v/v) PS (Drug-treatment Medium). A stock solution (40 mM) of curcumin was prepared in sterile dimethyl sulfoxide (DMSO) (Example 1). Through serial dilution of each stock solution in Drug-treatment Medium, the following concentrations were obtained: 20 μM and 50 μM (for caspase 3/7 assays) or 25 μM and 50 μM (for MTT assays). Drug-treatment Medium in each well was aspirated, and a drug solution of each concentration or carrier-containing medium (control) was added to triplicate wells of cells (50 μl/well). […] Additionally, the background absorbance was determined from parallel wells containing only the Drug-treatment Medium plus a particular concentration of the drug (no cells). […] Fluorescence in each well was measured using the FLx 800 plate reader (Bio-Tek Instruments, Winooski, Vt.) set at 485/20 nm excitation and 528/20 nm emission wavelengths and the sensitivity of 70. […]

Test [2] relates to B16F10 (mouse melanoma) cells. The test is described as follows: Cell viability assay using MTT, B16F10. In kind it is cell-based. Particulars: 25 μM and 50 μM, 48 h or 96 h, versus control cells (FIG. 6a). Here is the method: (§1) Cells. B16F10 (mouse melanoma), GL261 (mouse glioma), HOG (human oligodendroglioma), A549 (human lung cancer), and N18 (mouse neuroblastoma) cells were cultured separately in DMEM containing 10% (v/v) fetal bovine serum and 1% (v/v) penicillin-streptomycin (PS) and allowed to grow to 40% confluence in a 96-well plate.
(§2) Curcumin Treatment. Two hours before drug treatment, the medium in each well was replaced with 200 μl Neurobasal medium supplemented with 2% (v/v) B27 and 1% (v/v) PS (Drug-treatment Medium). A stock solution (40 mM) of curcumin was prepared in sterile dimethyl sulfoxide (DMSO) (Example 1). Through serial dilution of each stock solution in Drug-treatment Medium, the following concentrations were obtained: 20 μM and 50 μM (for caspase 3/7 assays) or 25 μM and 50 μM (for MTT assays). […] Additionally, the background absorbance was determined from parallel wells containing only the Drug-treatment Medium plus a particular concentration of the drug (no cells).
(§3) Cell Viability Assay Using MTT (3-(4,5-Dimethylthiazolyl-2)-2,5-Diphenyltetrazolium Bromide). […] Absorbance was measured at 570 nm using a 96-well multi scanner auto-reader with the extraction buffer used as blank. For curcumin samples, the absorbance obtained from the corresponding curcumin plus medium samples was subtracted.

Test [3] has as its system human pancreatic carcinoma cell lines. As to conditions: human pancreatic carcinoma cell lines (Li et al. 2004); cited from earlier work.
Test [4] deals with GL261 (mouse glioma) cells. The test is described as follows: Cell viability assay using MTT, GL261. In kind it is cell-based. Particulars: 25 μM and 50 μM, 48 h or 96 h, versus control cells (FIG. 6b). As for the experimental part:
as §1, §2, §3

Another test concerns human glioma cells. Particulars: human glioma cells in vitro (Karmakar 2006; Dhandapani 2007); cited from earlier work.
In another test the test system is cyclin D1. Briefly: Western blot of B16F10 cells, cyclin D1. Format: cell-based, mouse. Particulars: 50 μM. As for the experimental part:
B16F10 cells were cultured in 10-cm plates and then treated in duplicate with carrier or curcumin (50 μM). Following treatment for appropriate time periods, the cells were washed with PBS, lysed in RIPA buffer (PBS containing 1% Nonidet P40, 0.5% sodium deoxycholate, 0.1% SDS, 0.5 mM Na3VO4 plus freshly added PMSF and protease inhibitor cocktail; Boeringer-Roche), and then 20 μg of lysate protein (per lane) were analyzed by SDS-10% PAGE and Western blot analysis. Antibody concentrations used were: anti-phospho-NF-κB (1:1000) (Santa Cruz Biotechnology, Santa Cruz, Calif.), anti-phospho-Akt (1:5000) (Cell Signaling, CA), anti-cyclin D1 (1:1000) (Cell Signaling, CA), anti-BclXL (1:500) (Santa Cruz Biotechnology), anti-VEGF (1:500) (Santa Cruz Biotechnology), and anti-β-actin (1:1000) (Sigma, St. Louis, Mo.).

Another test concerns breast tumor cell lines. As to conditions: several breast tumor cell lines (Mehta et al. 1997); cited from earlier work.

For the compound `COc1cc(/C=C/C(=O)CC(=O)/C=C/c2ccc(O)c(OC)c2)ccc1O` [curcumin], the apoptosis entry is recorded as “triggers apoptosis” with rat glioma cells, “induces apoptosis” in test [3] and “triggers apoptosis” with human glioma cells. Besides, the caspase-3/7 activity result in test [1] is given as “increased”. Also, the “cell viability (MTT)” value in test [2] and in test [4] was “dramatic decrease” each time. For the same compound, the “cyclin D1 levels (Western blot)” value in the test on cyclin D1 (active cell division (first 48 h)) is listed as “decrease”. Further, in the test with cyclin D1 (subsequently, when cell division had slowed down), the “cyclin D1 inhibition (Western blot)” value is “not observed”. In the test with breast tumor cell lines, the proliferation result was “antiproliferative effects”.
